Patent publication US12485134B2, “Use of nicotinamide riboside, nicotinic acid riboside, reduced nicotinyl riboside compounds, and nicotinyl riboside compound derivatives in formulations” (ChromaDex Inc., priority 2019, dated 2025)

Tests used:
[1] = Recovery of NR added to store bought (cow) milk, HILIC/HPLC/UV; type: physicochemical; details: cow's milk and human breast milk
Experimental: Nicotinamide riboside (NR, I) is also naturally found in milk. […] FIGS. 2B and 2C are control chromatograms showing detection of nicotinamide riboside (NR, I) after adding nicotinamide riboside (NR, I) to the milk sample at a known amount. […] The calculated recovery of the 1% nicotinamide riboside (NR, I) was close to 100%. […] Centrifugation was then performed to remove any precipitate, and the supernatant was analyzed using an HILIC/HPLC/UV using standard methods.

[2] = test system: milk proteins; assay: WaterLOGSY NMR, direct binding of 15N-labeled NR to milk proteins; details: no milk, 150 μL and 300 μL of milk
Excerpt: Whey protein fraction and casein protein have been identified as leading candidates to bind directly to and stabilize nicotinamide riboside (NR, I) in milk. The addition of these proteins in particular (either alone or in combination with other proteins and/or vitamins) in order to stabilize nicotinamide riboside (NR, I) in liquid constitutes another embodiment of a method of delivery of the present invention. […] In this experiment, Water-Ligand Observed via Gradient Spectroscopy (WaterLOGSY NMR) was used to detect direct binding of stable, isotope-labeled (^15N) nicotinamide riboside (NR, I) to milk proteins. This is visualized as a concentration-dependent shift in the nicotinamide riboside (NR, I) spectra with increasing additions of milk. The concentric shapes shifts from left to right are the results of addition of no milk, 150 μL of milk, and 300 μL of milk, respectively.

[3] = test system: protein components of a meal replacement beverage; assay: WaterLOGSY NMR binding of NR-Cl; details: meal replacement beverage containing soy protein isolate and milk protein concentrate
Experimental: (§1) WaterLOGSY is a sensitive ligand-observed NMR experiment designed for the screening of protein ligands from a mixture of potential binders. […] The experiment relies on fast dissociation of bound ligands to carry into the free state magnetisation originating from irradiated water that has been transmitted via the protein complex.
(§2) NMR samples for WaterLOGSY were prepared as follows. Ligand-detect WaterLOGSY experiments were carried at 600 MHz with 5-mm cryoprobe and using 5-mm NMR tubes. Each NMR sample for WaterLOGSY contained ˜0.05 mg (˜0.35 mM), using unlabeled ligand NR-Cl (“NR”), in a NMR buffer containing ˜0.5 mL 90% H2O/10% ^2H2O at pH 7.0 with or without the milk and soy protein mix (compared to the WaterLOGSY of NR as a negative control). Protein was added as a powder with a minimal 15 to 50 μM concentration. Typically, the final NMR sample of protein-compound mixtures had >20-fold higher compound concentration of ligand compared to that of the protein. Denatured samples were prepared by simply heating (80° C. for 15-20 mins) the aqueous (5-10% ^2H2O) protein mixture (in absence of NR).
The beverage that was tested contained soy protein isolate and milk protein concentrate and it could only be either of these ingredients that could contribute to the positive result that was observed. […]

[4] = test system: milk concentrate proteins; assay: WaterLOGSY NMR binding of NR-Cl; details: milk concentrate, pH 7.0
Experimental: as §1, §2
The NR only WaterLOGSY spectrum (FIG. 23) was the negative control to screen for any potential binding of NR-Cl to milk concentrate and soy isolate proteins as shown herein and discussed below.

[5] = mice on a high-fat diet supplemented with NR; cited from earlier work
[6] = Degradation tracking of 15N NR-Cl to 15N nicotinamide by 15N-1H HMBC and 1H NMR, with or without whey protein; type: physicochemical
Experimental: A series of 1D ^1H and 1D ^15N-^1H HMBC experiments were collected on a 600 MHz Bruker instrument with 5-mm cryoprobe and using 5-mm NMR tubes. Each sample contains ˜10 mM ^15N isotope labeled NR-Cl (or non-isotope), in a solution containing ˜0.5 mL 90% H2O/10% ^2H2O buffered at pH values of 7.0 (5 mM PBS) and 9.0 (50 mM Glycine/Sodium hydroxide), with or without whey protein. The NMR tube was incubated at 25° C. and data collected at 1, 3 and 7 days. The NMR results provided evidence of binding to milk and soy protein and provided evidence of increased stability in combination with Whey protein at different pH over a 7 day time-course.
FIG. 22 highlights the corresponding ^1H-NMR data for the increased stability of the NR-Cl at day 7 under pH 7 and 9 buffered conditions, compared to control.
The integrations for the peaks corresponding to ^15N NR-Cl and ^15N nicotinamide were measured for the degradation that had occurred to ^15N—NR-Cl from Day 1 to Day 7. […] The half-life for ^15N NR-Cl in buffered pH 9 conditions- improved from 2.7 days (control) to 10 days in the presence of Whey protein.

[7] = test system: hydrolyzed whey protein isolate; assay: NR-Cl binding to hydrolyzed whey protein isolate (10 kDa cutoff filtration, unbound NR-Cl in filtrate by HPLC); details: hydrolyzed whey protein isolate solutions, ambient and refrigerated
Experimental: A. Solutions of hydrolyzed whey protein isolate (>90% protein, 2-7% degree of hydrolysis) were prepared at varying concentrations and filtered through 0.2 μm sterile filters. An aliquot of sterile nicotinamide riboside chloride (“NR-Cl,” a salt of NR, I) in water solution was spiked into the sterile whey solutions, targeting a final NR-Cl concentration of 1 mmol per liter (0.3 mg/mL). The solutions containing the mixture of hydrolyzed whey and NR-Cl were filtered through 10 kDa molecular weight cutoff centrifuge filters to remove the whey proteins (14-80 kDa) and any NR-Cl that was bound to the proteins. Any NR-Cl that was not bound to the whey proteins was recovered in the filtrate and quantitated by HPLC.
The solutions of hydrolyzed whey protein isolate and NR-Cl were stored at ambient and refrigerated conditions and analyzed at various timepoints for NR-Cl protein binding and stability.
A study measuring the stability of NR-Cl in hydrolyzed and non-hydrolyzed whey protein was conducted with 2 mmol/L NR-Cl (0.6 mg/mL) and 20 mg/mL protein (33.3:1 wt:wt protein:NR-Cl). […] (See Table 5).

SMILES: NC(=O)c1ccc[n+]([C@@H]2O[C@H](CO)[C@@H](O)[C@H]2O)c1 [NR, Nicotinamide riboside]
- stability in milk [1]: stable in milk
- direct binding to milk proteins (WaterLOGSY, concentration-dependent shift) [2]: binds to proteins in milk
- WaterLOGSY binding [3]: strongest evidence of NR binding
- WaterLOGSY binding [4]: comparatively weaker binding
- less weight gained [5]: 40%

SMILES: NC(=O)c1ccc[15n+]([C@@H]2O[C@H](CO)[C@@H](O)[C@H]2O)c1 [^15N NR-Cl, ^15N-labeled nicotinamide riboside chloride]
- half-life ([6]; PBS buffer with whey protein, buffered pH 7, 25° C., in the presence of Whey protein): 672 h
- half-life ([6]; PBS buffer without whey protein (control), buffered pH 7, 25° C., control (without Whey protein)): 81.6 h
- half-life ([6]; buffered pH 9, 25° C., control (without Whey protein)): 64.8 h
- half-life ([6]; glycine/sodium hydroxide buffer with whey protein, buffered pH 9, 25° C., in the presence of Whey protein): 240 h
- rate of degradation in the presence of Whey protein ([6]; pH 7.0 and 9.0, days 1, 3 and 7): slower than the control

SMILES: NC(=O)c1cccnc1 [nicotinamide]
- binding to whey [7]: not observed to bind
